In patent US20040259142A1, “Products and methods” (Imperial College Innovations Limited, priority 2003, published 2004):
Values belong to the compound of their own block, whether it stands above or below them.

How the values were obtained:
[1] = target: T1, recombinant soluble L-selectin IgG chimera (Homo sapiens, UniProt P14151); assay: L-selectin binding to lipid-linked oligosaccharide array on nitrocellulose; conditions: array IDs 1-30 on nitrocellulose, 10 pmol per spot
T1 construct: recombinant soluble L-selectin IgG chimera; made in house; host or cells: transfected Chinese hamster ovary cells (provided by Dr Gray Shaw, Genetics Institute)
T1 sequence (P14151 39-332 limits assumed): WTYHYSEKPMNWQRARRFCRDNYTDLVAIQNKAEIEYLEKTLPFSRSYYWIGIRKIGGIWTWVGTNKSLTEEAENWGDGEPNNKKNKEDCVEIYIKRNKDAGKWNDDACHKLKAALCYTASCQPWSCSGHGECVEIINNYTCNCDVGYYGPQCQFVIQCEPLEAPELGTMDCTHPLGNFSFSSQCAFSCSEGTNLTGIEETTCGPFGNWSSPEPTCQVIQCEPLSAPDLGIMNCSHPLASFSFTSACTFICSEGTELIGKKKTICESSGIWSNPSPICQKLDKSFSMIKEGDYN
Source text: (§1) The lipid-linked oligosaccharides (in chloroform:methanol:water, 25:25:8 v/v) were applied by jet spray with a sample applicator (Linomat IV, Camag, Switzerland) as 2 mm bands for ‘miniarray’, or as […] spots for ‘microarray’ format, onto 0.45 μm nitrocellulose or 0.2 μm PVDF membranes (both from Bio-Rad, Hemel Hempstead, UK), or aluminium-backed silica gel plates (Merck). When fluorescent NGLs were applied onto the membranes, and examined directly under UV light, 1-2 pmol was clearly visible above the background on the PVDF, whereas on nitrocellulose, 5 pmol was required due to a high fluorescent background. For detection, therefore, the fluorescent NGLs were printed onto PVDF membranes; the non-fluorescent lipid-linked oligosaccharides were printed onto silica gel plates and detected with primulin stain.
Selectin-binding experiments were carried out as above except that the membranes were ‘blocked’ 1% (w/v) casein in 10 mM Tris-HCl buffer pH 7.4 containing 50 mM CaCl2 and 150 mM NaCl (TBS/Ca) and overlaid for 2 h with L-selectin (1 μg/ml pre-complexed^42 with biotinylated anti-human IgG from Vector), or E-selectin (at 1 μg/ml) in TBS/Ca. Binding of L-selectin was detected by overlaying with HRP-conjugated streptavidin (Sigma), 10 μg/ml, in TBS/Ca containing 1% casein. Binding of E-selectin was detected by overlaying with biotinylated anti-human IgM (Sigma), 5 μg/ml, followed by the HRP-conjugated streptavidin.

[2] = tested on: anti-L5 monoclonal antibody; assay: anti-L5 binding to lipid-linked oligosaccharide arrays on nitrocellulose; parameters: species or system rat; conditions: array IDs 1-30 on nitrocellulose, 10 pmol per spot
Source text: as §1
(§2) Experiments were carried out at ambient temperature unless stated otherwise. The dilutions of the antibodies used were those recommended by the manufacturers or providers. Concentrations where known are indicated. For antibody-binding experiments, the membranes were ‘blocked’ for 1 h with 3% (w/v) bovine serum albumin (BSA) in phosphate buffered saline (10 mM phosphate buffer containing 150 mM NaCl) pH 7.4 (PBS), and overlaid with for 2 h with the antibodies diluted in phosphate buffered saline containing 3% BSA (PBS/BSA). […]

[3] = tested on: anti-SSEA-1 monoclonal antibody; assay: anti-SSEA-1 binding to lipid-linked oligosaccharide arrays on membranes; parameters: species or system murine; conditions: array IDs 1-30 on nitrocellulose, 10 pmol per spot
Source text: as §1, §2

[4] = target: T2, interferon γ (IFN-γ) (Homo sapiens, UniProt P01579); assay: interferon γ binding to lipid-linked oligosaccharide array on nitrocellulose
T2 construct: purchased Sigma; host or cells: Escherichia coli
T2 sequence (P01579 24-166): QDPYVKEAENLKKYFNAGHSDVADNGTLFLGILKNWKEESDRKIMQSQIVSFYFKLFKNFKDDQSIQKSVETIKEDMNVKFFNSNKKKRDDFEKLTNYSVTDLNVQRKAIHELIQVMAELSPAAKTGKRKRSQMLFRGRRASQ
Source text: as §1
(§3) For cytokine/chemokine-binding experiments, the membranes were blocked for 1 h with 3% (w/v) BSA in 10 mM Tris-HCl buffer containing 150 mM NaCl, 2 mM CaCl2 and 0.8 mM MgCl2 (TNCM), overlaid with INFγ or RANTES at 1 μg per ml diluted in TNCM/BSA, incubated for 16 h at 4° C.
(§4) The membranes were washed four times, for 30 min with 10 mM Tris-HCl buffer containing 20 mM NaCl, 5 mM CaCl2 and 2 mM MgCl2 (TNCM-L) to minimize elution of the bound proteins^31. […] Carbohydrate-binding experiments with NGLs resolved by TLC were performed as described^12.

[5] = tested on: monoclonal antibody C-14; assay: C-14 antibody binding to lipid-linked oligosaccharide array on nitrocellulose; parameters: species or system murine; conditions: array IDs 1-30 on nitrocellulose, 10 pmol per spot
Source text: as §1, §2

[6] = target: T3, chemokine RANTES (Homo sapiens, UniProt P13501); assay: RANTES binding to lipid-linked oligosaccharide array on nitrocellulose; conditions: array IDs 1-30 at 10 pmol per spot
T3 construct: purchased R&D systems; host or cells: Escherichia coli
T3 sequence (P13501 24-91): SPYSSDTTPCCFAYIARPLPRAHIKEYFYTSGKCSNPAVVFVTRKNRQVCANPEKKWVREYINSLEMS
Source text: as §1, §3, §4

[7] = tested on: monoclonal antibody HNK-1 (anti-HNK-1); assay: anti-HNK-1 binding to lipid-linked oligosaccharide arrays on nitrocellulose; conditions: array IDs 1-30 on nitrocellulose, 10 pmol per spot
Source text: as §1, §2

[8] = target: TSG-6 (Homo sapiens, UniProt P98066); assay: TSG-6 binding to HA and HA NGL on nitrocellulose-coated FastSlide; conditions: 2 mm bands on FastSlide, DAB colour, FIG. 9
TSG-6, sequence (P98066 18-277, species assumed): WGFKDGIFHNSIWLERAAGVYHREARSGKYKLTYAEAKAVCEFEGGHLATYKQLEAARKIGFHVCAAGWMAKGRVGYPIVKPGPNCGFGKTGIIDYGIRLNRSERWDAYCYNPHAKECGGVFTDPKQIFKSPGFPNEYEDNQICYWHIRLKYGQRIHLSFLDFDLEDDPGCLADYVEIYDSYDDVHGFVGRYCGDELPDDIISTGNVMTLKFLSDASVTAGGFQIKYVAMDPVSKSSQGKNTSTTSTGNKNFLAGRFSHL
Source text: NGL samples in organic-based solvent mixture (chloroform/methanol/water 25:25:8, by vol), and also polysaccharides, glycosaminoglycans (GAGs) and glycoproteins in water, were arrayed with N2-assisted jet spray as 1-2 mm bands or 150 μm spots.
Binding to the arrayed samples was detected using biotinylated antibodies directed to the proteins being investigated, followed by conventional ELISA-DAB colour reaction or by using CyS-labelled streptavidin.
Similarly, different amounts of hyaluronic acid polysaccharide (HA) (5 to 500 ng) and its oligosaccharide derived NGL, HA 8mer-DHPE (0.05 to 5 pmol), were applied as 2 mm bands onto a nitrocellulose coated FastSlide. The interactions of TSG-6 (a protein which can bind to the HA) with the carbohydrate-containing molecules on the support material, HA and the HA NGL, are shown in FIG. 9.

[9] = array IDs 1-30 printed at 1 pmol per spot
[10] = array IDs 1-30 at 10 pmol per spot

L-selectin binding [1]: binding
Compound: Man5-phosphate [ID 21]

L-selectin binding [1]: binding
IFN-γ binding [4, 9]: clear preference
Compound: O=C(O)C1=C[C@H](O)[C@@H](OS(=O)(=O)O)[C@H](O[C@H]2[C@H](O)[C@@H](NS(=O)(=O)O)[C@@H](O)O[C@@H]2COS(=O)(=O)O)O1 [ID 28, HS/HEP 2mer]

L-selectin binding [1]: binding
IFN-γ binding [4, 10]: additional or increased binding signals
RANTES binding [6]: additional or increased binding signals
binding of anti-HNK-1 [7]: bound
Compound: HNK-1 [ID 20]

IFN-γ binding [4, 10]: additional or increased binding signals
RANTES binding [6]: additional or increased binding signals
Compound: 6′-SU-3′-SA-Le^x5 [ID 19]

The remaining lines, values behind:

Compound: lacto-N-fucopentaose III [ID 10]
binding of anti-L5 [2]: bound
binding of anti-SSEA-1 [3]: bound

Compound: 3′,6-SU-Le^x-5 [ID 17]
IFN-γ binding [4, 9]: weak binding

Compound: CC(=O)NC1C(O)CC(OC2C(O)C(CO)OC(OC3C(CO)OC(OC4C(O)C(CO)OC(OC5C(CO)OC(O)C(O)C5O)C4O)C(NC(C)=O)C3OC3OC(C)C(O)C(O)C3O)C2O)(C(=O)O)OC1C(O)C(O)CO (stereo not shown) [ID 14, 3′-SA-Le^x-5]
L-selectin binding [1]: weak

Compound: 3′-SU-Le^x-5 [ID 16]
IFN-γ binding [4, 9]: weak binding

Compound: CC(=O)NC1C(OC2C(O)C(CO)OC(OC3C(CO)OC(O)C(O)C3O)C2O)OC(CO)C(OC2OC(CO)C(O)C(O)C2OC2OC(C)C(O)C(O)C2O)C1OC1OC(C)C(O)C(O)C1O (stereo not shown) [ID 12, lacto-N-neo-difucohexaose I]
binding of C-14 antibody [5]: bound

Compound: hyaluronic acid [HA polysaccharide]
sensitivity of detection of TSG-6 binding [8]: nanograms
